Results published in ChEMBL document CHEMBL1201862, “PubChem BioAssay data set” (2004).
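Each compound was tested at five concentrations against cells in 96-well plates for 48 hours. Here, GI50 denotes the concentration required for 50% inhibition of growth.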 Activity calls are given as the source filed them. Cut-off read from the data, not from the text of the source: active = GI50 up to about 1.1 µM and inactive = higher.

Experiments:
Assay in all cases: NCI anticancer screen, dose series, 48 h
IGROV-1 = system: IGROV-1
SN12C = system: SN12C
UACC-257 = system: UACC-257
LOX IMVI = system: LOX IMVI
786-0 = system: 786-0
HCT-15 = system: HCT-15
KM12 = system: KM12
PC-3 = system: PC-3
UACC-62 = system: UACC-62
MOLT-4 = system: MOLT-4
T47D = system: T47D
RPMI-8226 = system: RPMI-8226
DU-145 = system: DU-145
COLO 205 = system: COLO 205
NCI-H23 = system: NCI-H23
SK-MEL-28 = system: SK-MEL-28
Hs-578T = system: Hs-578T
SK-MEL-2 = system: SK-MEL-2
HOP-62 = system: HOP-62
OVCAR-3 = system: OVCAR-3
SR = system: SR
SF-268 = system: SF-268
MCF7 = system: MCF7
MDA-MB-231 = system: MDA-MB-231
HCC 2998 = system: HCC 2998
BT-549 = system: BT-549
SK-MEL-5 = system: SK-MEL-5
MDA-MB-435 = system: MDA-MB-435
HL-60 = system: HL-60
TK-10 = system: TK-10
A498 = system: A498
EKVX = system: EKVX
CAKI-1 = system: CAKI-1
Malme-3M = system: Malme-3M
SF-295 = system: SF-295
K562 = system: K562
SNB-19 = system: SNB-19
SW-620 = system: SW-620
ACHN = system: ACHN
NCI-H226 = system: NCI-H226
HT-29 = system: HT-29
SNB-75 = system: SNB-75
U-251 = system: U-251
OVCAR-5 = system: OVCAR-5
MDA-N = system: MDA-N
NCI-H460 = system: NCI-H460
RXF 393 = system: RXF 393
OVCAR-8 = system: OVCAR-8
OVCAR-4 = system: OVCAR-4
NCI/ADR-RES = system: NCI/ADR-RES
HCT-116 = system: HCT-116
NCI-H522 = system: NCI-H522
A549 = system: A549
M14 = system: M14
UO-31 = system: UO-31
SF-539 = system: SF-539
CCRF-CEM = system: CCRF-CEM
SK-OV-3 = system: SK-OV-3
HOP-92 = system: HOP-92

Measured: GI50

COc1cc2c(cc1OCCCCOc1cc3c(cc1OC)C(=O)N1CCC[C@H]1C(=O)N3)N=C[C@@H]1CCCN1C2=O
12.2 µM: HCT-15
inactive: IGROV-1 8.57 µM | SN12C 9.75 µM | UACC-257 14.9 µM | LOX IMVI 1.99 µM | 786-0 13.2 µM | KM12 5.02 µM | PC-3 6.05 µM | UACC-62 3.35 µM | MOLT-4 2.27 µM | T47D 5.52 µM | RPMI-8226 1.57 µM | DU-145 17.2 µM | COLO 205 2.55 µM | NCI-H23 12.8 µM | SK-MEL-28 14.3 µM | Hs-578T 10.3 µM | SK-MEL-2 5.57 µM | HOP-62 10.9 µM | OVCAR-3 11.5 µM | SR 2.17 µM | SF-268 3.82 µM | MCF7 2.72 µM | MDA-MB-231 3.11 µM | HCC 2998 11.7 µM | BT-549 4.44 µM | SK-MEL-5 4 µM | MDA-MB-435 4.2 µM | HL-60 9.18 µM | TK-10 12.9 µM | A498 6.71 µM | EKVX 12.5 µM | CAKI-1 11.6 µM | Malme-3M 9.79 µM | SF-295 12.5 µM | K562 2.28 µM | SNB-19 8.18 µM | SW-620 3.29 µM | ACHN 14.7 µM | NCI-H226 13.5 µM | HT-29 16.6 µM | SNB-75 4.12 µM | U-251 3.93 µM | OVCAR-5 13.1 µM | MDA-N 7.28 µM | NCI-H460 15.8 µM | RXF 393 3.59 µM | OVCAR-8 14.7 µM | OVCAR-4 13.1 µM | NCI/ADR-RES 13.4 µM | HCT-116 16.8 µM | NCI-H522 1.12 µM | A549 18.3 µM | M14 12.9 µM | UO-31 14.8 µM

NCCNC(=O)CN(CC(=O)O)C1CCCCC1N(CC(=O)O)CC(=O)O (configuration not stated)
> 100 µM: HCT-15
inactive: IGROV-1 > 100 µM | SN12C > 100 µM | UACC-257 > 100 µM | LOX IMVI > 100 µM | 786-0 > 100 µM | KM12 > 100 µM | PC-3 > 100 µM | UACC-62 > 100 µM | MOLT-4 > 100 µM | T47D > 100 µM | RPMI-8226 > 10 µM | DU-145 > 100 µM | COLO 205 > 100 µM | NCI-H23 > 100 µM | SK-MEL-28 > 100 µM | Hs-578T 56 µM | SK-MEL-2 > 100 µM | HOP-62 > 100 µM | OVCAR-3 > 100 µM | SR > 100 µM | SF-268 24.4 µM | MCF7 > 100 µM | MDA-MB-231 > 100 µM | HCC 2998 > 100 µM | BT-549 > 100 µM | SF-539 > 100 µM | SK-MEL-5 > 100 µM | MDA-MB-435 > 100 µM | HL-60 > 100 µM | TK-10 > 100 µM | A498 > 100 µM | CCRF-CEM > 100 µM | EKVX > 100 µM | CAKI-1 > 100 µM | Malme-3M > 100 µM | SF-295 > 100 µM | K562 > 100 µM | SNB-19 > 100 µM | SW-620 > 100 µM | ACHN > 100 µM | NCI-H226 > 100 µM | HT-29 > 100 µM | SNB-75 2.32 µM | U-251 > 100 µM | OVCAR-5 > 100 µM | MDA-N > 100 µM | NCI-H460 > 100 µM | OVCAR-8 > 100 µM | OVCAR-4 > 100 µM | NCI/ADR-RES > 100 µM | SK-OV-3 > 100 µM | HCT-116 > 100 µM | NCI-H522 > 100 µM | A549 > 100 µM | M14 > 100 µM | UO-31 > 100 µM | HOP-92 11.7 µM

CN1CCC/C1=C1/C(=O)N(c2ccccc2)N=C1c1ccc[nH]1
> 100 µM: HCT-15
inactive: IGROV-1 > 100 µM | SN12C > 100 µM | UACC-257 > 100 µM | LOX IMVI > 100 µM | 786-0 > 100 µM | KM12 > 100 µM | PC-3 > 100 µM | UACC-62 > 100 µM | MOLT-4 > 100 µM | T47D > 100 µM | RPMI-8226 > 100 µM | DU-145 > 100 µM | COLO 205 > 100 µM | NCI-H23 > 100 µM | SK-MEL-28 > 100 µM | Hs-578T > 100 µM | SK-MEL-2 > 100 µM | HOP-62 > 100 µM | OVCAR-3 > 100 µM | SR > 100 µM | SF-268 > 100 µM | MCF7 > 100 µM | MDA-MB-231 > 100 µM | HCC 2998 > 100 µM | BT-549 > 100 µM | SK-MEL-5 > 100 µM | MDA-MB-435 > 100 µM | HL-60 > 100 µM | TK-10 > 100 µM | A498 > 100 µM | CCRF-CEM > 100 µM | EKVX > 100 µM | CAKI-1 > 100 µM | Malme-3M > 100 µM | SF-295 > 100 µM | K562 > 100 µM | SNB-19 > 100 µM | SW-620 > 100 µM | ACHN > 100 µM | NCI-H226 > 100 µM | SNB-75 > 100 µM | U-251 > 100 µM | OVCAR-5 > 100 µM | MDA-N > 100 µM | NCI-H460 > 100 µM | RXF 393 > 100 µM | OVCAR-8 > 100 µM | OVCAR-4 > 100 µM | NCI/ADR-RES > 100 µM | HCT-116 > 100 µM | NCI-H522 > 100 µM | A549 > 100 µM | M14 > 100 µM | UO-31 > 100 µM

O=c1[nH]c2nc3ccccc3c(=O)n2/c1=C/c1ccc(O)cc1
inactive: IGROV-1 39.2 µM | SN12C 30.6 µM | UACC-257 56.8 µM | LOX IMVI 35.6 µM | 786-0 34.8 µM | KM12 29.6 µM | PC-3 45.3 µM | UACC-62 27 µM | MOLT-4 31.7 µM | T47D 42.2 µM | RPMI-8226 16.9 µM | DU-145 30.8 µM | COLO 205 43.9 µM | NCI-H23 49 µM | SK-MEL-28 28.3 µM | Hs-578T 18.6 µM | SK-MEL-2 75.3 µM | HOP-62 64 µM | OVCAR-3 27 µM | SR 16.9 µM | SF-268 25.4 µM | MCF7 31 µM | MDA-MB-231 60.3 µM | HCC 2998 22.2 µM | BT-549 32.1 µM | SF-539 21.3 µM | SK-MEL-5 52.7 µM | MDA-MB-435 25.5 µM | HL-60 26 µM | TK-10 53 µM | CCRF-CEM 20.8 µM | EKVX 54.3 µM | CAKI-1 43.3 µM | Malme-3M 39.1 µM | SF-295 46.9 µM | SNB-19 21 µM | SW-620 22.6 µM | ACHN 56.1 µM | NCI-H226 38.7 µM | HT-29 24 µM | SNB-75 23.8 µM | U-251 26.2 µM | OVCAR-5 > 100 µM | MDA-N 32.3 µM | RXF 393 40.2 µM | OVCAR-8 22 µM | OVCAR-4 > 100 µM | NCI/ADR-RES 41.7 µM | SK-OV-3 > 100 µM | HCT-116 36.8 µM | NCI-H522 23.2 µM | A549 40.6 µM | M14 36.8 µM | UO-31 53.7 µM | HOP-92 49.5 µM
30.9 µM: HCT-15

CCOC(=O)[C@@H]1C[C@H]1c1ccc(O)c(O)c1
33.6 µM: HCT-15
inactive: IGROV-1 24.4 µM | SN12C 75.5 µM | UACC-257 19.9 µM | 786-0 41.4 µM | KM12 > 100 µM | PC-3 14.6 µM | UACC-62 17.1 µM | MOLT-4 18.5 µM | T47D 30.1 µM | RPMI-8226 30.9 µM | DU-145 10.1 µM | COLO 205 57.8 µM | NCI-H23 4.74 µM | SK-MEL-28 25.4 µM | Hs-578T 28.4 µM | SK-MEL-2 18.2 µM | HOP-62 84.9 µM | OVCAR-3 29 µM | SR 45.3 µM | SF-268 67.6 µM | MCF7 43.9 µM | MDA-MB-231 23.2 µM | HCC 2998 31.6 µM | BT-549 43.4 µM | SF-539 91 µM | SK-MEL-5 16.6 µM | MDA-MB-435 10.2 µM | TK-10 20.7 µM | EKVX > 100 µM | CAKI-1 29.7 µM | Malme-3M 31.8 µM | SF-295 > 100 µM | K562 10.9 µM | SNB-19 > 100 µM | SW-620 18.6 µM | ACHN 65.2 µM | NCI-H226 70.6 µM | HT-29 55.5 µM | U-251 69.7 µM | OVCAR-5 > 100 µM | MDA-N 12.7 µM | NCI-H460 58.2 µM | RXF 393 26.6 µM | OVCAR-8 37.9 µM | NCI/ADR-RES 43.3 µM | SK-OV-3 43.1 µM | HCT-116 14.4 µM | NCI-H522 16.4 µM | A549 41.3 µM | M14 34.8 µM | UO-31 31.3 µM | HOP-92 > 100 µM
